Test results taken from ChEMBL document CHEMBL1157346, “Synthesis and antiproliferative activity in vitro of novel (2-butynyl)thioquinolines” (2008).
Values after ≈ are worked out from the molar mass of the structure shown. Active and inactive are the calls of the source. No cut-off for these calls is given here.

Key:
Format in all cases: functional
[1] = (§1) Cytotoxicity against human SW707 cells after 72 hrs by SRB assay; settings: SW707, 72 h, read-out: ID50 (the source's name)
B16 = test: Cytotoxicity against mouse B16 cells after 72 hrs by SRB assay; settings: for IC50: B16, 72 h, read-out: ID50 (the source's name)
P388 = test: Cytotoxicity against mouse P388 cells after 72 hrs by MTT assay; settings: for IC50: P388, 72 h, read-out: ID50 (the source's name)
CCRF-CEM = test: Cytotoxicity against human CCRF-CEM cells after 72 hrs by SRB assay; settings: for IC50: read-out: ID50 (the source's name)
SW707 = test: as §1

| SMILES | IC50 [1] [µg/mL] | IC50 (B16) [µg/mL] | IC50 (P388) [µg/mL] | IC50 (CCRF-CEM) [µg/mL] | Activity (B16) | Activity (SW707) | Activity (P388) | Activity (CCRF-CEM) |
| --- | --- | --- | --- | --- | --- | --- | --- | --- |
| C[Se]c1c(SCC#CCO)cnc2ccccc12 | 3.5 (≈ 10.9 µM) | 5.8 (≈ 18 µM) | 19.8 (≈ 61.4 µM) | 2.1 (≈ 6.52 µM) | – | – | – | – |
| C#CCSc1cnc2ccccc2c1SCC#CC[Se]c1c(SCC#CC)cnc2ccccc12 | 43 (≈ 75 µM) | – | 30.7 (≈ 53.5 µM) | 30.3 (≈ 52.8 µM) | inactive | – | – | – |
| C#CCSc1cnc2ccccc2c1SCC#CCSc1c(SCC#C)cnc2ccccc12 | – | – | – | – | inactive | inactive | inactive | inactive |
| OCC#CCSc1cnc2ccccc2c1SCC#CCBr | 36.2 (≈ 92.3 µM) | 4.9 (≈ 12.5 µM) | 43.2 (≈ 110 µM) | 0.6 (≈ 1.53 µM) | – | – | – | – |
| CSc1cnc2ccccc2c1SCC#CCO | 34.9 (≈ 127 µM) | 49.8 (≈ 181 µM) | 3.1 (≈ 11.3 µM) | 2.3 (≈ 8.35 µM) | – | – | – | – |
| C#CCSc1cnc2ccccc2c1[Se]CC#CCBr | 2.2 (≈ 5.38 µM) | 4.2 (≈ 10.3 µM) | 1.2 (≈ 2.93 µM) | 0.3 (≈ 0.733 µM) | – | – | – | – |
| C#CCSc1c(SCC#CCO)cnc2ccccc12 | – | – | 13.3 (≈ 44.4 µM) | 2.7 (≈ 9.02 µM) | inactive | inactive | – | – |
| OCC#CCSc1cnc2ccccc2c1[Se]CC#CCO | 26.6 (≈ 70.7 µM) | 4.3 (≈ 11.4 µM) | 4.1 (≈ 10.9 µM) | 1.4 (≈ 3.72 µM) | – | – | – | – |
| OCC#CCSc1cnc2ccccc2c1Cl | 6.2 (≈ 23.5 µM) | – | 2.4 (≈ 9.1 µM) | 4.1 (≈ 15.5 µM) | inactive | – | – | – |
| OCC#CCSc1cnc2ccccc2c1SCC#CCO | 32 (≈ 97.1 µM) | 42.2 (≈ 128 µM) | 5.7 (≈ 17.3 µM) | 2.6 (≈ 7.89 µM) | – | – | – | – |
| C#CCSc1cnc2ccccc2c1SCC#CCO | 42.6 (≈ 142 µM) | 54.7 (≈ 183 µM) | 4 (≈ 13.4 µM) | 3.2 (≈ 10.7 µM) | – | – | – | – |
| C#CCSc1cnc2ccccc2c1[Se]CC#CCO | 3.3 (≈ 9.53 µM) | 3.6 (≈ 10.4 µM) | 3.1 (≈ 8.95 µM) | 3.2 (≈ 9.24 µM) | – | – | – | – |
| C#CC[Se]c1c(SCC#CCO)cnc2ccccc12 | 3.8 (≈ 11 µM) | 6.8 (≈ 19.6 µM) | 2.5 (≈ 7.22 µM) | 1.9 (≈ 5.49 µM) | – | – | – | – |
| COc1c(SCC#CCO)cnc2ccccc12 | 67.4 (≈ 260 µM) | – | 23.2 (≈ 89.5 µM) | 22 (≈ 84.8 µM) | inactive | – | – | – |
| CC#CCSc1cnc2ccccc2c1SCC#CCSc1c(SCC#CC)cnc2ccccc12 | – | – | – | – | inactive | inactive | inactive | inactive |
| CSc1c(SCC#CCO)cnc2ccccc12 | 69.3 (≈ 252 µM) | – | 32.3 (≈ 117 µM) | 13.9 (≈ 50.5 µM) | inactive | – | – | – |
| OCC#CCSc1cnc2ccccc2c1[Se]CC#CCBr | 2.8 (≈ 6.37 µM) | 4.6 (≈ 10.5 µM) | 1.6 (≈ 3.64 µM) | 0.2 (≈ 0.455 µM) | – | – | – | – |
| CSc1cnc2ccccc2c1SCC#CCSc1c(SC)cnc2ccccc12 | – | – | – | – | inactive | inactive | inactive | inactive |
| CSc1cnc2ccccc2c1[Se]CC#CCO | 3.4 (≈ 10.5 µM) | 4.2 (≈ 13 µM) | 2.6 (≈ 8.07 µM) | 0.5 (≈ 1.55 µM) | – | – | – | – |
